Several values for one entry are separate records, joined by “and”; a condition that tells them apart may be missing. Equal entries are not always repeated. Toxic doses and inconclusive results are not listed. Cut-off read from the data, not from the text of the source: active = T/C of 150% or more; inactive = T/C below 125%.
System: L1210 leukemia ip in BDF1 mice, survival T/C
Test: NCI In Vivo Anticancer Drug Screen. Data for tumor model L1210 Leukemia (intraperitoneal) in B6D2F1 (BDF1) mice
Settings: endpoint: mean survival time, higher = longer survival
How it was run: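 Ratio derived from survival: compound-dosed mice over vehicle-dosed mice, all bearing a transplantable tumor.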

[1] = dose: 100.0 mg/kg/injection, schedule: Q01DX001 (ip), vehicle: carboxymethylcellulose (CMC)
[2] = dose: 100.0 mg/kg/injection, schedule: Q04DX003 (ip), vehicle: saline
[3] = dose: 200.0 mg/kg/injection, schedule: Q01DX001 (ip), vehicle: carboxymethylcellulose (CMC)
[4] = dose: 200.0 mg/kg/injection, schedule: Q04DX003 (ip), vehicle: saline
[5] = dose: 400.0 mg/kg/injection, schedule: Q01DX001 (ip), vehicle: carboxymethylcellulose (CMC)
[6] = dose: 400.0 mg/kg/injection, schedule: Q04DX003 (ip), vehicle: saline
[7] = dose: 100.0 mg/kg/injection, schedule: Q04DX002 (ip), vehicle: saline with Tween-80
[8] = dose: 200.0 mg/kg/injection, schedule: Q04DX002 (ip), vehicle: saline with Tween-80
[9] = dose: 400.0 mg/kg/injection, schedule: Q04DX002 (ip), vehicle: saline with Tween-80
[10] = dose: 50.0 mg/kg/injection, schedule: Q01DX001 (ip), vehicle: carboxymethylcellulose (CMC)
[11] = dose: 100.0 mg/kg/injection, schedule: Q01DX009 (ip), vehicle: Klucel (hydroxypropylcellulose) (HPC)
[12] = dose: 100.0 mg/kg/injection, schedule: Q04DX003 (ip), vehicle: Klucel (hydroxypropylcellulose) (HPC)
[13] = dose: 200.0 mg/kg/injection, schedule: Q01DX009 (ip), vehicle: Klucel (hydroxypropylcellulose) (HPC)
[14] = dose: 400.0 mg/kg/injection, schedule: Q01DX009 (ip), vehicle: Klucel (hydroxypropylcellulose) (HPC)
[15] = dose: 400.0 mg/kg/injection, schedule: Q04DX003 (ip), vehicle: Klucel (hydroxypropylcellulose) (HPC)
[16] = dose: 50.0 mg/kg/injection, schedule: Q01DX009 (ip), vehicle: Klucel (hydroxypropylcellulose) (HPC)
[17] = dose: 200.0 mg/kg/injection, schedule: Q04DX003 (ip), vehicle: Klucel (hydroxypropylcellulose) (HPC)
[18] = dose: 100.0 mg/kg/injection, schedule: Q01DX001 (ip), vehicle: saline
[19] = dose: 200.0 mg/kg/injection, schedule: Q01DX001 (ip), vehicle: saline
[20] = dose: 400.0 mg/kg/injection, schedule: Q01DX001 (ip), vehicle: saline

Measured: T/C

COc1ccc(C(=O)c2cc(OC)c(OC)c(OC)c2)cc1OC
inactive: dose: 50.0 mg/kg/injection, schedule: Q04DX003 (ip), vehicle: saline 98 % of control | [1] 102 % of control | dose: 100.0 mg/kg/injection, schedule: Q01DX009 (ip), vehicle: saline 108 % of control | [2] 100 % of control | [3] 103 % of control | dose: 200.0 mg/kg/injection, schedule: Q01DX009 (ip), vehicle: saline 112 % of control | [4] 104 % of control | [5] 103 % of control | dose: 400.0 mg/kg/injection, schedule: Q01DX009 (ip), vehicle: saline 101 % of control | [6] 96 % of control

C/C(=N\Nc1cccc(N)c1)c1ccccc1
inactive: dose: 25.6 mg/kg/injection, schedule: Q04DX002 (ip), vehicle: saline with Tween-80 89 % of control | dose: 64.0 mg/kg/injection, schedule: Q04DX002 (ip), vehicle: saline with Tween-80 89 % of control

COC1CCC(/C=C(\C#N)C2CCC(C)CC2)CC1 (configuration not stated)
inactive: [7] 94 % of control | [8] 97 % of control | [9] 94 % of control

O=C(O)C12CC=CCC1(C(=O)O)CC=CC2 (configuration not stated)
inactive: [10] 96 % of control | [1] 98 % of control | [3] 102 % of control | [5] 98 % of control

CCSC(SCC)C(SCC)C(O)C(O)C(O)CO (configuration not stated)
inactive: [1] 106 % of control | [3] 112 % of control | [5] 114 % of control

CCc1c(Nc2ccccc2C)[nH]c(N)nc1=S
inactive: dose: 100.0 mg/kg/injection, schedule: Q01DX Z (ip), vehicle: methylcellulose (MC) 101 % of control | dose: 200.0 mg/kg/injection, schedule: Q01DX Z (ip), vehicle: methylcellulose (MC) 95 % of control

O=C1c2ccccc2-c2cc(-c3ccccc3)cc(-c3ccccc3)c21
inactive: [11] 96 % of control | [12] 104 % of control | [13] 92 % of control | [14] 94 % of control | [15] 88 % of control

COc1ccc([N+](=O)[O-])cc1NC(=O)Nc1ccc(Nc2ccccc2)cc1
inactive: [16] 97 % of control | [11] 94 % of control | [13] 90 % of control

COc1ccc(CN(C)C)c(C(O)c2ccccc2)c1 (configuration not stated)
inactive: [10] 101 % of control | [1] 103 % of control | [3] 103 % of control

CCCCCCCCCCCCCCCCOc1ccc(-c2cc(=O)n(C)n2C)cc1
inactive: [12] 95 % of control | [17] 101 % of control | [15] 95 % of control

CCOC(=O)/C=C(/C)N
inactive: [7] 95 % of control | [8] 91 % of control | [9] 95 % of control

CC(C)(C)c1ccc(S(=O)(=O)c2ccc(C(C)(C)C)c(N=C=O)c2)cc1N=C=O
inactive: dose: 75.0 mg/kg/injection, schedule: Q04DX002 (ip), vehicle: saline with Tween-80 96 % of control | dose: 150.0 mg/kg/injection, schedule: Q04DX002 (ip), vehicle: saline with Tween-80 101 % of control | dose: 300.0 mg/kg/injection, schedule: Q04DX002 (ip), vehicle: saline with Tween-80 93 % of control

CNC(=O)Nc1cccc(C(F)(F)F)c1
inactive: [11] 103 % of control | [12] 102 % of control | [13] 100 % of control | [17] 102 % of control | [15] 123 % of control

CS(=O)(=O)CC(=O)c1ccccc1
inactive: dose: 37.5 mg/kg/injection, schedule: Q01DX009 (ip), vehicle: saline with Tween-80 87 % of control | dose: 75.0 mg/kg/injection, schedule: Q01DX009 (ip), vehicle: saline with Tween-80 90 % of control | dose: 100.0 mg/kg/injection, schedule: Q04DX003 (ip), vehicle: saline with Tween-80 95 % of control | dose: 150.0 mg/kg/injection, schedule: Q01DX009 (ip), vehicle: saline with Tween-80 87 % of control | dose: 200.0 mg/kg/injection, schedule: Q04DX003 (ip), vehicle: saline with Tween-80 96 % of control

COC(=O)c1ccc2cc(C(=O)OC)ccc2c1
inactive: dose: 50.0 mg/kg/injection, schedule: Q04DX003 (ip), vehicle: Klucel (hydroxypropylcellulose) (HPC) 105 % of control | [12] 105 % of control | [17] 101 % of control

NC(C(=O)O)c1cccc(F)c1 (configuration not stated)
inactive: dose: 50.0 mg/kg/injection, schedule: Q01DX001 (ip), vehicle: saline 98 % of control | [18] 101 % of control | [19] 101 % of control | [20] 95 % of control

O=C1CC2=C(CC(O)=CC=C2)C(=O)O1
inactive: [2] 104 % of control | [4] 100 % of control | [6] 93 % of control

CC(=O)OC1CCCCC1C (configuration not stated)
inactive: [18] 102 % of control | [19] 94 % of control | [20] 91 % of control

NS(=O)(=O)c1ccc(N=Nc2ncc[nH]2)cc1
inactive: [16] 94 % of control | [11] 94 % of control | [13] 94 % of control

O=C(CSc1ccc([N+](=O)[O-])cc1)c1ccc(Br)cc1
inactive: [18] 87 % of control | [2] 95 % of control | [19] 87 % of control | [4] 90 % of control | [20] 94 % of control | [6] 90 % of control

N/C(=N\O)c1c(N)ncn1C1OC(CO)C(O)C1O (configuration not stated)
inactive: dose: 100.0 mg/kg/injection, schedule: Q01DX005 (ip), vehicle: saline 97 % of control | dose: 200.0 mg/kg/injection, schedule: Q01DX005 (ip), vehicle: saline 100 % of control

O=C(O)COc1c(Cl)c(Cl)c(Cl)c(Cl)c1Cl
inactive: dose: 100.0 mg/kg/injection, schedule: Q01DX009 (ip), vehicle: saline with Tween-80 93 % of control

COC(=O)c1ccc2c3c(ccc(C(=O)OC)c13)C=C2
inactive: [18] 102 % of control | [19] 94 % of control | [20] 95 % of control

CC(C)CNC(=O)CCCc1ccc(N(CCCl)CCCl)cc1
inactive: dose: 4.0 mg/kg/injection, schedule: Q12HX018 (ip), vehicle: other 110 % of control | dose: 6.0 mg/kg/injection, schedule: Q12HX018 (ip), vehicle: other 95 % of control | dose: 8.0 mg/kg/injection, schedule: Q12HX018 (ip), vehicle: other 112 % of control

C#[C][Sn]([CH2]CCC)([CH2]CCC)[CH2]CCC
inactive: dose: 0.39 mg/kg/injection, schedule: Q01DX009 (ip), vehicle: saline with Tween-80 109 % of control | dose: 0.78 mg/kg/injection, schedule: Q01DX009 (ip), vehicle: saline with Tween-80 94 % of control | dose: 1.56 mg/kg/injection, schedule: Q01DX009 (ip), vehicle: saline with Tween-80 95 % of control and 98 % of control

NC(=O)CNC(=O)CN1C(=O)c2ccccc2C1=O
inactive: dose: 100.0 mg/kg/injection, schedule: Q01DX001 (ip), vehicle: other 103 % of control | dose: 200.0 mg/kg/injection, schedule: Q01DX001 (ip), vehicle: other 103 % of control | dose: 400.0 mg/kg/injection, schedule: Q01DX001 (ip), vehicle: other 103 % of control

COc1ccccc1NC(=O)Nc1ccccc1F
inactive: [11] 100 % of control | [12] 89 % of control | [13] 105 % of control | [17] 89 % of control | [14] 97 % of control | [15] 97 % of control
